One data set deals with 5-lipoxygenase. In words: 5-lipoxygenase inhibition (method of Yoshimoto et al.). The data set is classed as biochemical. Particulars: read-out: 50% inhibitory concentration on 5-lipoxygenase. The text has this: According to the pharmacological experiment conducted by the method of Yoshimoto et al. which is described in Biochem. Biophys. Res. Commum., vol. 107, p.
For a further data set, the system named is mice. In words: acute toxicity in male mice. The data set is classed as in vivo. The following applies: observed for 5 days. The text has this: The acute toxicity of the compounds of the present invention was studied in 5 male mice weighing 30 to 45 g.
Data set [1] has as its system left ventricular pressure max dP/dt. In words: cardiotonic activity (max dP/dt) in anesthetized dogs. The class given is in vivo. Particulars: injected into left coronary artery. On the procedure:
The experiment on cardiotonic activity of the compounds of the present invention was conducted as follows: Dogs were anesthetized with sodium pentobarbital and heparin was administered intraveneously. The left venticular pressure and its max dP/dt were measured. Test compounds were injected at a volume of 10 to 30 μl into a catheter inserted into left coronary artery. The effects of test compounds on max dP/dt were shown as ED30, a dose required to increase max dP/dt by 30% of the effects of 0.1 μg is isoproterenol.

The test system of a further data set is central nervous system. In words: sedative activity by electroencephalograms in rabbits. The data set is classed as in vivo. The following applies: from the intraperitoneal dose of 3 mg/kg.

Consider `Cc1[nH]c2ccc(O)cc2c1C(=O)NC1CCN(CCc2ccccc2)CC1` [Example 2, 5-hydroxy-2-methyl-N-[1-(2-phenylethyl)-4-piperidyl]indole-3-carboxamide], for which the IC50 on 5-lipoxygenase is 440 nM. Further, the mortality result with mice (oral 1000 mg/kg) was “All animals survived”.

For the compound `Cc1[nH]c2ccc(O)cc2c1C(=O)NC1CCN(CCCc2ccccc2)CC1` [Example 3, 5-hydroxy-2-methyl-N-[1-(3-phenylpropyl)-4-piperidyl]indole-3-carboxamide], in data set [1], the “ED30, dose required to increase max dP/dt by 30% of the effects of 0.1 μg isoproterenol” value amounted to 50 µg. The IC50 on 5-lipoxygenase turned out to be 180 nM.

For the compound `Cc1[nH]c2ccc(O)cc2c1C(=O)NC1CCN(CCCc2ccc(O)cc2)CC1` [Example 35, 5-Hydroxy-2-methyl-N-[1-(3-(p-hydroxyphenyl)propyl)-4-piperidyl]indole-3-carboxamide], the “ED30, dose required to increase max dP/dt by 30% of the effects of 0.1 μg isoproterenol” value in data set [1] turned out to be 36 µg.

Turning to `O=C(NC1CCN(CCc2c[nH]c3ccccc23)CC1)c1ccccc1` [indoramin, 3-[2-(4-benzamido-1-piperidyl)ethyl]indole, reference compound], in the data set with central nervous system, the “changes on electroencephalograms (sedative activity)” value is listed as “trend toward slow wave”. In addition, the mortality result with mice (oral 500 mg/kg) is recorded as “all mice died”.

With `C[C@@H]1O[C@@H](O[C@H]2C[C@@H](O)[C@]3(CO)[C@H]4[C@H](O)C[C@]5(C)[C@@H](C6=CC(=O)OC6)CC[C@]5(O)[C@@H]4CC[C@]3(O)C2)[C@H](O)[C@H](O)[C@H]1O` [ouabain, reference compound], the “ED30, dose required to increase max dP/dt by 30% of the effects of 0.1 μg isoproterenol” value in data set [1] amounted to 60 µg.

(Values after patent US4581355A, “3-indolecarboxamides for control of circulatory diseases” (Yoshitomi Pharmaceutical Industries, Ltd., priority 1983, dated 1986).)
